Reference: patent publication US20120270819A1, “USE OF COMPOUNDS WITH SGLT-1/SGLT-2 INHIBITOR ACTIVITY FOR PRODUCING MEDICAMENTS FOR TREATMENT OF BONE DISEASE” (SANOFI, priority 2009, published 2012)

Tested on: female Sprague-Dawley mature and young adult rats
Test: Ex vivo peripheral quantitative computed tomography (pQCT) of right femur (metaphysis, diaphysis, length)
Assay type: in vivo, rat
Conditions: Young Adults; for pQCT femur (diaphysis) CSMI / pQCT femur (diaphysis) Cortical Area / pQCT femur (diaphysis) Cortical BMC / pQCT femur (diaphysis) Cortical BMD / pQCT femur (diaphysis) Cortical Thickness / pQCT femur (diaphysis) Endosteal Circumference / pQCT femur (diaphysis) Periosteal Circumference / pQCT femur (diaphysis) Total Area / pQCT femur (diaphysis) Total BMC / pQCT femur (diaphysis) Total BMD / pQCT femur Length / pQCT femur metaphysis C/SC (Cortical/Subcortical) BMC / pQCT femur metaphysis C/SC (Cortical/Subcortical) BMD / pQCT femur metaphysis Total Area / pQCT femur metaphysis Total BMC / pQCT femur metaphysis Total BMD / pQCT femur metaphysis Trabecular BMC / pQCT femur metaphysis Trabecular BMD: mean
Method: The following were evaluated: clinical signs (at least weekly), body weight (weekly), food consumption (weekly), hormones (Days 13 and 27), serum and urinary biochemical markers of bone turnover (Days 13 and 27), serum chemistry (at necropsy), bone densitometry by dual energy X-ray absorptiometry (DXA) and peripheral quantitative computed tomography (pQCT) (Week 2 and 4, as well as ex vivo), macroscopic observations at necropsy, organ weights, histopathology, biomechanical strength testing and femoral length measurements.
3.2 Ex Vivo Peripheral Quantitative Computed Tomography (pQCT)
Peripheral QCT scans were performed ex vivo using an XCT Research SA or SA+ bone scanner with software version 5.50D. Scans were obtained for the right femur, L3 and L4 lumbar vertebra for all animals euthanized at the end of the treatment period as well as two found dead animals. These two animals were scanned twice due to technical oversight, however only the first scans obtained were reported and the second scans were kept with the study file, this had no impact on the study as both scans were considered equivalent.
For the femurs, the scanned site was at the expected 3-point bending fracture site (diaphysis). This site was analyzed using Cortmode 2 for cortical bone measurements only (Table 5). An additional slice was obtained in the metaphysis. The metaphysis scan was not performed for the femur of three animals due to condyles detachment from the femur during trimming.
The femoral length was measured as part of the ex vivo pQCT scanning procedures and was reported for the right femur of all animals with the exception of 3 animas due to damaged femoral condyles.
All analyses were performed using the LOOP option of the analysis software. All other data generated as a result of the LOOP option were retained with the raw data but not reported. The most appropriate analysis mode for the femur and the lumbar vertebrae was used and documented in the raw data and the analysis details are presented in Table 6. All scan analysis data was retained and re-analyses documented.

COc1ccc(Cc2c(OC3OC(CO)C(F)C(O)C3O)n[nH]c2C(F)(F)F)cc1 (stereo not drawn) [Example 5 of formula II]
pQCT femur (diaphysis) CSMI, percent difference from Vehicle Control (10 mg/kg/day): −1.3% | pQCT femur (diaphysis) Cortical Area, percent difference from Vehicle Control (10 mg/kg/day): −0.4% | pQCT femur (diaphysis) Cortical BMC, percent difference from Vehicle Control (10 mg/kg/day): −0.8% | pQCT femur (diaphysis) Cortical BMD, percent difference from Vehicle Control (10 mg/kg/day): −0.4% | pQCT femur (diaphysis) Cortical Thickness, percent difference from Vehicle Control (10 mg/kg/day): 0.15% | pQCT femur (diaphysis) Endosteal Circumference, percent difference from Vehicle Control (10 mg/kg/day): −0.7% | pQCT femur (diaphysis) Periosteal Circumference, percent difference from Vehicle Control (10 mg/kg/day): −1.2% | pQCT femur (diaphysis) Total Area, percent difference from Vehicle Control (10 mg/kg/day): −0.9% | pQCT femur (diaphysis) Total BMC, percent difference from Vehicle Control (10 mg/kg/day): 0.2% | pQCT femur (diaphysis) Total BMD, percent difference from Vehicle Control (10 mg/kg/day): 1.1% | pQCT femur Length, percent difference from Vehicle Control (10 mg/kg/day): −3.8% | pQCT femur metaphysis C/SC BMC, percent difference from Vehicle Control (10 mg/kg/day): 10.7% | pQCT femur metaphysis C/SC BMD, percent difference from Vehicle Control (10 mg/kg/day): 6.8% | pQCT femur metaphysis Total Area, percent difference from Vehicle Control (10 mg/kg/day): 3.7% | pQCT femur metaphysis Total BMC, percent difference from Vehicle Control (10 mg/kg/day): 16.7% | pQCT femur metaphysis Total BMD, percent difference from Vehicle Control (10 mg/kg/day): 12.6% | pQCT femur metaphysis Trabecular BMC, percent difference from Vehicle Control (10 mg/kg/day): 41.4% | pQCT femur metaphysis Trabecular BMD, percent difference from Vehicle Control (10 mg/kg/day): 36.4% | pQCT femur (diaphysis) CSMI (10 mg/kg/day): 3.8 mm^4 | pQCT femur (diaphysis) Cortical Area (10 mg/kg/day): 4.7 mm^2 | pQCT femur (diaphysis) Cortical BMC (10 mg/kg/day): 5.6 mg/mm | pQCT femur (diaphysis) Cortical BMD (10 mg/kg/day): 1182.8 mg/cm^3 | pQCT femur (diaphysis) Cortical Thickness (10 mg/kg/day): 0.54 mm | pQCT femur (diaphysis) Endosteal Circumference (10 mg/kg/day): 6.9 mm | pQCT femur (diaphysis) Periosteal Circumference (10 mg/kg/day): 10.2 mm | pQCT femur (diaphysis) Total Area (10 mg/kg/day): 8.6 mm^2 | pQCT femur (diaphysis) Total BMC (10 mg/kg/day): 6.2 mg/mm | pQCT femur (diaphysis) Total BMD (10 mg/kg/day): 721.8 mg/cm^3 | pQCT femur Length (10 mg/kg/day): 31.9 mm | pQCT femur metaphysis C/SC (Cortical/Subcortical) BMC (10 mg/kg/day): 7.9 mg/mm | pQCT femur metaphysis C/SC (Cortical/Subcortical) BMD (10 mg/kg/day): 877.1 mg/cm^3 | pQCT femur metaphysis Total Area (10 mg/kg/day): 15.0 mm^2 | pQCT femur metaphysis Total BMC (10 mg/kg/day): 10.3 mg/mm | pQCT femur metaphysis Total BMD (10 mg/kg/day): 690.2 mg/cm^3 | pQCT femur metaphysis Trabecular BMC (10 mg/kg/day): 2.5 mg/mm | pQCT femur metaphysis Trabecular BMD (10 mg/kg/day): 410.7 mg/cm^3 | pQCT femur (diaphysis) CSMI, percent difference from Vehicle Control (50 mg/kg/day): 0.6% | pQCT femur (diaphysis) Cortical Area, percent difference from Vehicle Control (50 mg/kg/day): −0.6% | pQCT femur (diaphysis) Cortical BMC, percent difference from Vehicle Control (50 mg/kg/day): −0.7% | pQCT femur (diaphysis) Cortical BMD, percent difference from Vehicle Control (50 mg/kg/day): −0.1% | pQCT femur (diaphysis) Cortical Thickness, percent difference from Vehicle Control (50 mg/kg/day): −0.01% | pQCT femur (diaphysis) Endosteal Circumference, percent difference from Vehicle Control (50 mg/kg/day): −0.7% | pQCT femur (diaphysis) Periosteal Circumference, percent difference from Vehicle Control (50 mg/kg/day): −0.3% | pQCT femur (diaphysis) Total Area, percent difference from Vehicle Control (50 mg/kg/day): −0.7% | pQCT femur (diaphysis) Total BMC, percent difference from Vehicle Control (50 mg/kg/day): 0.0% | pQCT femur (diaphysis) Total BMD, percent difference from Vehicle Control (50 mg/kg/day): 0.9% | pQCT femur Length, percent difference from Vehicle Control (50 mg/kg/day): −4.9% | pQCT femur metaphysis C/SC BMC, percent difference from Vehicle Control (50 mg/kg/day): 18.4% | pQCT femur metaphysis C/SC BMD, percent difference from Vehicle Control (50 mg/kg/day): 13.6% | pQCT femur metaphysis Total Area, percent difference from Vehicle Control (50 mg/kg/day): 4.3% | pQCT femur metaphysis Total BMC, percent difference from Vehicle Control (50 mg/kg/day): 33.0% | pQCT femur metaphysis Total BMD, percent difference from Vehicle Control (50 mg/kg/day): 27.6% | pQCT femur metaphysis Trabecular BMC, percent difference from Vehicle Control (50 mg/kg/day): 92.0% | pQCT femur metaphysis Trabecular BMD, percent difference from Vehicle Control (50 mg/kg/day): 84.7% | pQCT femur (diaphysis) CSMI (50 mg/kg/day): 3.9 mm^4 | pQCT femur (diaphysis) Cortical Area (50 mg/kg/day): 4.7 mm^2 | pQCT femur (diaphysis) Cortical BMC (50 mg/kg/day): 5.6 mg/mm | pQCT femur (diaphysis) Cortical BMD (50 mg/kg/day): 1186.1 mg/cm^3 | pQCT femur (diaphysis) Cortical Thickness (50 mg/kg/day): 0.54 mm | pQCT femur (diaphysis) Endosteal Circumference (50 mg/kg/day): 7.0 mm | pQCT femur (diaphysis) Periosteal Circumference (50 mg/kg/day): 10.2 mm | pQCT femur (diaphysis) Total Area (50 mg/kg/day): 8.6 mm^2 | pQCT femur (diaphysis) Total BMC (50 mg/kg/day): 6.2 mg/mm | pQCT femur (diaphysis) Total BMD (50 mg/kg/day): 720.6 mg/cm^3 | pQCT femur Length (50 mg/kg/day): 31.6 mm | pQCT femur metaphysis C/SC (Cortical/Subcortical) BMC (50 mg/kg/day): 8.4 mg/mm | pQCT femur metaphysis C/SC (Cortical/Subcortical) BMD (50 mg/kg/day): 932.6 mg/cm^3 | pQCT femur metaphysis Total Area (50 mg/kg/day): 15.1 mm^2 | pQCT femur metaphysis Total BMC (50 mg/kg/day): 11.8 mg/mm | pQCT femur metaphysis Total BMD (50 mg/kg/day): 782.0 mg/cm^3 | pQCT femur metaphysis Trabecular BMC (50 mg/kg/day): 3.4 mg/mm | pQCT femur metaphysis Trabecular BMD (50 mg/kg/day): 556.0 mg/cm^3
